# Assay results: EP0731697B1, “SSI TYRPHOSTINS AND PHARMACEUTICAL COMPOSITIONS” (priority 1993, dated 1995)
# Columns and labels:
# [1] = target: Her-2/neu receptor (Homo sapiens, UniProt P04626); conditions: even at concentrations above 100 uM; cited from earlier work
# [2] = system: mice; assay: TNF-α induced lethal toxicity in actinomycin D treated mice; type: in vivo; conditions: actinimycin D:TNF 20 to 2.5 and 15 to 1.0, SSI 3, 400 mg/mouse i.p. 2 hr prior to TNF, 5 mice
# Description: The effect of SSI 3 on lethal toxicity in mice induced by TNF-α was investigated. Mice are relatively resistant to TNF-α, when applied as a single agent. Pretreatment of mice with actinomycin D renders them extremely sensitive to TNF. (Wallach et al., 140 J. Immun. 2994, 1988). SSI 3 delayed TNF-α induced lethal toxicity in actinomycin D treated mice by approximately 15 hours at two ratios of actinimycin D:TNF (20 to 2.5 and 15 to 1.0). Mice were injected, i.p., with TNF at 0 time. SSI 3, […]/mouse was administered (i.p.) 2 hr, and actinomycin D (ACT.D) was given (i.p.) 30 min prior to TNF injection. Each experimental group contained 5 mice. Injection of actinomycin D alone causes death in 2 out of 5 animals after 120 hours and 3 out of 5 after 144 hours.
# Her-2/neu receptor, sequence (P04626 23-1255): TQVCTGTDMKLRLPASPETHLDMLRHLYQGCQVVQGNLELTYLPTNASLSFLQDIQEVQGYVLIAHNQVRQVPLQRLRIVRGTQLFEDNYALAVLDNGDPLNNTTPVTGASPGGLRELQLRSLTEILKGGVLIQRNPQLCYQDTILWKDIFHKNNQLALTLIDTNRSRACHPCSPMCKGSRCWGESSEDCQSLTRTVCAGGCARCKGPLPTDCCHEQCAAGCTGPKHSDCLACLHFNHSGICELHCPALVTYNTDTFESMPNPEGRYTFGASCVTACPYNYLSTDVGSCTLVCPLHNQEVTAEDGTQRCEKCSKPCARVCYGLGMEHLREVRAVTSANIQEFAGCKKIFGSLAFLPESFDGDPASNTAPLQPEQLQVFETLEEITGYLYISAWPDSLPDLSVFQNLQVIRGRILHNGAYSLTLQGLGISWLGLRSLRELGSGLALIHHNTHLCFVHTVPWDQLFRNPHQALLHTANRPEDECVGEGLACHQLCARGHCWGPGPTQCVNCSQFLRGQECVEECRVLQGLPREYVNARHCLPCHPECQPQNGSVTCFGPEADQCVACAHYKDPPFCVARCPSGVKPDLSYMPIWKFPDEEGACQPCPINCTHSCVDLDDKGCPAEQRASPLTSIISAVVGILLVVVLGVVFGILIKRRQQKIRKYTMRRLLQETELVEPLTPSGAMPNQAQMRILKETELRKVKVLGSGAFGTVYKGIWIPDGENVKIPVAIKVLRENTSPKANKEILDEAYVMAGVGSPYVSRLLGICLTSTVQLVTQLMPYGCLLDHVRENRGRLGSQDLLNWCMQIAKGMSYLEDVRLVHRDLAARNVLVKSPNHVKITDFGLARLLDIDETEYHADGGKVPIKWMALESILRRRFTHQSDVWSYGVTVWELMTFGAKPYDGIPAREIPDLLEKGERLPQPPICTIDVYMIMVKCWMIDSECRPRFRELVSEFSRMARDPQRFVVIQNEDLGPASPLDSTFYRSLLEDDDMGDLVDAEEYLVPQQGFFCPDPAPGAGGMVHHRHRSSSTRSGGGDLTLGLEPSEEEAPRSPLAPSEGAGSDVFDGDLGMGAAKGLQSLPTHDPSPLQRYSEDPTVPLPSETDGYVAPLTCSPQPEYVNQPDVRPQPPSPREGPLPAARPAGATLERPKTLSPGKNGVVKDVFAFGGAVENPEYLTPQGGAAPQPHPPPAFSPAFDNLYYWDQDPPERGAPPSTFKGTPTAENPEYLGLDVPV
smiles,measurement,setting,value
N#CC(C#N)=Cc1ccc([N+](=O)[O-])c(O)c1 [SSI 3],effect on Her-2/neu receptor,[1],no effect
same,delay of TNF-α induced lethal toxicity,[2],approximately 15 hours
